Format in all cases: biochemical
The target in test [1] is T1, human MMP-1 (amino acids 100-262) (Homo sapiens, UniProt P03956).
T1 construct: human MMP-1 (amino acids 100-262); made in house
T1 sequence (P03956 100-262): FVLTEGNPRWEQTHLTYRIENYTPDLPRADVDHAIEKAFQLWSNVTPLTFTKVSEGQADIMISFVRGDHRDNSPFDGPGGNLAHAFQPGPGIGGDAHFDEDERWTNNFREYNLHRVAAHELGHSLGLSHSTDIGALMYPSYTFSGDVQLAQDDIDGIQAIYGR
Put plainly: MMP dose response assay for determining IC50, MMP-1. The note with it: recombinant catalytic domain, fluorescent-quench substrate 100 nM. Here is the method:
(§1) MMP Dose Response Assay for Determining IC50
(§2) The following method was used for determining IC50 values of different inhibitor compounds against multiple MMP enzymes. Frozen stocks of recombinantly produced MMPs were prepared in assay buffer (50 mM HEPES pH 7.4, 10 mM CaCl2, 0.05% Brij-35). […] Enzyme concentrations in the assay were determined empirically and set such that proteolytic activity was maintained in a linear range over the time-course of the experiment. […] Each concentration for each test compound was tested in triplicate. MMP enzymes were equilibrated with compounds for 1 hour at room temperature, then a fluorescent-quench substrate (Acetyl-Cys(Eu)-Pro-Leu-Gly-Leu-Lys-(QSY7)-Ala-Arg-amide) was added to a final concentration of 100 nM. […] Data was analyzed by first calculating average background value from wells that contained only substrate, and this value was subtracted from the entire plate. The 100%, or maximum value, was determined by averaging control wells that contained enzyme, substrate and DMSO. For each well, the percent of control was calculated by dividing the well value by the average DMSO value obtained above.

The target of test [2] is T2, human MMP-9 (amino acids 107-446) (Homo sapiens, UniProt P14780).
T2 construct: human MMP-9 (amino acids 107-446); made in house
Put plainly: MMP dose response assay for determining IC50, MMP-9. The note with it: recombinant enzyme, fluorescent-quench substrate 100 nM; read-out: MMP-9. Here is the method: as §1, §2

Test [3] deals with T3, human MMP-2 (amino acids 1-660) (Homo sapiens, UniProt P08253).
T3 construct: human MMP-2 (amino acids 1-660); made in house
T3 sequence (P08253 110-660): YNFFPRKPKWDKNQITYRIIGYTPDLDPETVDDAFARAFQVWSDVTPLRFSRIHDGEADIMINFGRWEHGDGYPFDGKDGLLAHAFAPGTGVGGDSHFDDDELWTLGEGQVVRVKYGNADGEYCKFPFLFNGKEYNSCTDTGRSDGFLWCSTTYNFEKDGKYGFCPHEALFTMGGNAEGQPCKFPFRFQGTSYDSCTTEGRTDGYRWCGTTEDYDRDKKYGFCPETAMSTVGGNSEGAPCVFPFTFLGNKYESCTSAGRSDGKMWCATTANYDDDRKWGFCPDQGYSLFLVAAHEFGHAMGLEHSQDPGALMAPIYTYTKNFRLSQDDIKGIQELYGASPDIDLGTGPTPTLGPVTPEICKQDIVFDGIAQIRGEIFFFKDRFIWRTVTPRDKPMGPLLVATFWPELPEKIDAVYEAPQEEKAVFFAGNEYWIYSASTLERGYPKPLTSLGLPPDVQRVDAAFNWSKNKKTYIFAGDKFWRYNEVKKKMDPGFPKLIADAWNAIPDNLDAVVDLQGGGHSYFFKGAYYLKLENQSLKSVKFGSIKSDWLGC
Nature of the test: MMP dose response assay for determining IC50, MMP-2. The procedure:
as §1, §2

Setting [4] is: recombinant enzyme, fluorescent-quench substrate 100 nM, read-out: MMP-2.

The structures appear in SMILES notation. Where “and” joins values, the source holds several entries; their conditions need not be identical. Identical values can stand only once. Like-named read-outs stand apart in the source and are kept apart here.

T2 sequence (P14780 107-446): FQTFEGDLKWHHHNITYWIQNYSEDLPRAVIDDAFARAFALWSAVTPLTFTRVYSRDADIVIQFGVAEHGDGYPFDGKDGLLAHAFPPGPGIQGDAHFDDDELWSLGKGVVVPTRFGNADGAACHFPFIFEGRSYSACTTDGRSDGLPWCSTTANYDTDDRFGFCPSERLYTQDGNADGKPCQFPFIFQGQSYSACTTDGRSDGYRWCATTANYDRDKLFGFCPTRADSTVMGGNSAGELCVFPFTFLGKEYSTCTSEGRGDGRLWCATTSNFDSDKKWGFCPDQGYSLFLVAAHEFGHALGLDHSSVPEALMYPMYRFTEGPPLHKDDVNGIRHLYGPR

`CS(=O)(=O)N(C[C@@H](C(=O)NO)N1CCS(=O)(=O)CC1)c1ccc(Oc2ccc(C(F)(F)F)cc2)cc1` [Example 70, N-Hydroxy (2S)-2-[1,1-bis(oxo)thiomorpholin-4-yl]-3-{N-[4-(4-trifluoromethylphenoxy)phenyl],N-methanesulfonylamino}propionamide]: the IC50 was more than 10000 nM in test [1]; 1.9 nM and 1.52 nM and 6.29 nM in test [2]; 4.65 nM and 4.99 nM and 15.8 nM in test [3] (setting [4]).

Take `CC(C)N(CCNC(=O)OCc1ccccc1)[C@@H](CN(c1ccc(Oc2ccc(C(F)(F)F)cc2)cc1)S(C)(=O)=O)C(=O)NO` [Example 68]: the IC50 is more than 10000 nM in test [1], 28.8 nM in test [2] and 262 nM in test [3] (setting [4]).

Turning to `CN(C)[C@@H]1CCN([C@@H](CN(c2ccc(Oc3ccc(C(F)(F)F)cc3)cc2)S(C)(=O)=O)C(=O)NO)C1` [Example 75, N-Hydroxy (2S)-2-[(3R)-3-N,N-dimethylaminopyrrolidin-1-yl]-3-{N-[4-(4-trifluoromethylphenoxy)phenyl],N-methanesulfonylamino}propionamide], the IC50 in test [1] was more than 10000 nM; in test [2], 2.18 nM and 3.16 nM; in test [3] (setting [4]), 15.2 nM and 21.5 nM.

For `Cc1ccc(Oc2ccc(N(C[C@H](Nc3ccc(F)c(F)c3)C(=O)NO)S(C)(=O)=O)cc2)cc1` [Example 41, N-Hydroxy (2S)-2-(3,4-difluorophenyl)amino-3-{N-[4-(4-methylphenoxy)phenyl],N-methanesulfonylamino}propionamide], the IC50 is more than 10000 nM in test [1], 2.56 nM in test [2] and 127 nM in test [3] (setting [4]).

With `CS(=O)(=O)N(C[C@@H](C(=O)NO)N1CCc2ccccc2C1)c1ccc(Oc2ccc(C(F)(F)F)cc2)cc1` [Example 73, N-Hydroxy (2S)-2-(1,2,3,4-tetrahydroisoquinolin-2-yl)-3-{N-[4-(4-trifluoromethylphenoxy)phenyl],N-methanesulfonylamino}propionamide], the IC50 in test [1] was more than 10000 nM.

In the case of `Cc1ccc(Oc2ccc(N(C[C@H](Nc3ccccc3)C(=O)NO)S(C)(=O)=O)cc2)cc1` [Example 30, N-Hydroxy (2S)-3-{N-[4-(4-methylphenoxy)phenyl],N-methanesulfonylamino}-2-phenylaminopropionamide], the IC50 was > 10000 nM and 6220 nM and 8730 nM and 7280 nM and 7460 nM in test [1]; 18.6 nM and 15.4 nM and 15.3 nM and 5.27 nM and 9.5 nM and 9.9 nM and 7.96 nM in test [3] (setting [4]).

Turning to `Cc1ccc(C#Cc2ccc(N(C[C@H](O)C(=O)NO)S(C)(=O)=O)cc2)cc1` [Example 63, N-Hydroxy (2S)-2-hydroxy-3-{N-[4-(4-methylphenylacetylene)phenyl],N-methanesulfonylamino}propionamide], the IC50 in test [1] was more than 10000 nM; in test [3] (setting [4]) it was 28.2 nM and 65.9 nM.

Consider `Cc1ccc(Oc2ccc(N(C[C@H](O)C(=O)NO)S(=O)(=O)c3ccccc3)cc2)cc1` [Example 21, N-Hydroxy (2S)-2-hydroxy-3-{N-[4-(4-methylphenoxy)phenyl],N-phenylsulfonylamino}propionamide], for which the IC50 was more than 10000 nM in test [1] and 344 nM in test [2].

For the molecule `COc1cccc(N[C@@H](CN(c2ccc(Oc3ccc(C)cc3)cc2)S(C)(=O)=O)C(=O)NO)c1` [Example 51, N-Hydroxy (2S)-2-(3-methoxyphenyl)amino-3-{N-[4-(4-methylphenoxy)phenyl],N-methanesulfonylamino}propionamide], the IC50 in test [2] was determined as 0.62 nM; in test [3] (setting [4]) it was 26.8 nM.

Take `CS(=O)(=O)N(C[C@H](O)C(=O)NO)c1ccc(Sc2ccc(F)cc2)cc1` [Example 90, N-Hydroxy (2S)-2-hydroxy-3-{N-[4-(4-fluorothiophenoxy)phenyl],N-methanesulfonylamino}propionamide]: the IC50 is 64.4 nM and 39.2 nM in test [2]; 312 nM and 254 nM in test [3] (setting [4]).

Turning to `Cc1ccc(Sc2ccc(N(C[C@H](O)C(=O)NO)S(C)(=O)=O)cc2)cc1` [Example 49, N-Hydroxy (2S)-2-hydroxy-3-{N-[4-(4-methylthiophenoxy)phenyl],N-methanesulfonylamino}propionamide], the IC50 was 62.8 nM and 44.5 nM in test [2]; 274 nM and 321 nM in test [3] (setting [4]).

With `COc1ccc(C#Cc2ccc(N(C[C@H](O)C(=O)NO)S(C)(=O)=O)cc2)cc1` [Example 61, N-Hydroxy (2S)-2-hydroxy-3-{N-[4-(4-methoxyphenylacetylene)phenyl],N-methanesulfonylamino}propionamide], the IC50 in test [2] was found to be 91 nM; in test [3] (MMP-2 (nM)), 31.6 nM.

For `CC(C)CC#Cc1ccc(N(C[C@@H](C(=O)NO)N2CCOCC2)S(C)(=O)=O)cc1` [Example 94, N-Hydroxy (2S)-3-{N-[4-(4-methylpentyn-1-yl)phenyl],N-methanesulfonylamino}-2-(morpholin-4-yl)propionamide], the results for the IC50 in test [2] and in test [3] (setting [4]) were 113 nM and 106 nM, respectively.

As to `CN1CCN([C@@H](CN(c2ccc(Oc3ccc(Cl)cc3)cc2)S(C)(=O)=O)C(=O)NO)CC1` [Example 92, N-Hydroxy (2S)-3-{N-[4-(4-chlorophenoxy)phenyl],N-methanesulfonylamino}-2-(4-methylpiperazin-1-yl)propionamide], the IC50 in test [2] amounted to 2.39 nM; in test [3] (setting [4]), 6.5 nM.

Regarding `COc1ccc(N[C@@H](CN(c2ccc(Oc3ccc(C)cc3)cc2)S(C)(=O)=O)C(=O)NO)cc1` [Example 48, N-Hydroxy (2S)-2-(4-methoxyphenyl)amino-3-{N-[4-(4-methylphenoxy)phenyl],N-methanesulfonylamino}propionamide], the IC50 in test [2] was determined as 0.69 nM; in test [3] (setting [4]), 18.5 nM.

Turning to `CS(=O)(=O)N(C[C@@H](C(=O)NO)N1CCOCC1)c1ccc(Oc2ccc(C(F)(F)F)cn2)cc1` [Example 57, N-Hydroxy (2S)-2-(morpholin-4-yl)-3-{N-{4-[(5-trifluoromethylpyridin-2-yl)oxy]phenyl},N-methanesulfonylamino}propionamide], the IC50 in test [2] came to 227 nM; in test [3] (setting [4]), 406 nM.

`C=CCN(O)C(=O)[C@H](CN(c1ccc(Oc2ccc(C)cc2)cc1)S(C)(=O)=O)N1C[C@@H](C)O[C@@H](C)C1` [Example 102, N-(3-Allyl),N-hydroxy (2S)-2-(cis-2,6-dimethylmorpholin-4-yl)-3-{N-[4-(4-methylphenoxy)phenyl],N-methanesulfonylamino}propionamide]: the IC50 in test [2] is 6.53 nM and 6.01 nM; in test [3] (setting [4]), 23 nM and 24.8 nM.

In the case of `C[C@@H]1CN([C@@H](CN(c2ccc(Oc3ccc(Cl)cc3)cc2)S(C)(=O)=O)C(=O)NO)C[C@H](C)O1` [Example 95, N-Hydroxy (2S)-3-{N-[4-(4-chlorophenoxy)phenyl],N-methanesulfonylamino}-2-(cis-2,6-dimethylmorpholin-4-yl)propionamide], the IC50 in test [2] was 0.57 nM and 0.64 nM and 0.17 nM; in test [3] (setting [4]), 2.54 nM and 3.69 nM and 1.28 nM.

On to `Cc1ccc(Oc2ccc(N(C[C@H](O)C(=O)NO)S(=O)(=O)C(C)C)cc2)cc1` [Example 16, N-Hydroxy (2S)-2-hydroxy-3-{N-[4-(4-methylphenoxy)phenyl],N-(2-propyl)sulfonylamino}propionamide], for which the IC50 is more than 10000 nM in test [1] and 286 nM in test [2].

For `CC(C)N1CCN([C@@H](CN(c2ccc(Oc3ccc(Cl)cc3)cc2)S(C)(=O)=O)C(=O)NO)CC1` [Example 91, N-Hydroxy (2S)-3-{N-[4-(4-chlorophenoxy)phenyl],N-methanesulfonylamino}-2-[4-(2-propyl)piperazin-1-yl]Propionamide], the IC50 came out at 3.11 nM in test [2] and 8.77 nM in test [3] (setting [4]).

`CC(C)N[C@@H](CN(c1ccc(Oc2ccc(C(F)(F)F)cn2)cc1)S(C)(=O)=O)C(=O)NO` [Example 56, N-Hydroxy (2S)-2-(2-propyl)amino-3-{N-{4-[(5-trifluoromethylpyridin-2-yl)oxyl]phenyl},N-methanesulfonylamino}propionamide]: the IC50 is 144 nM in test [2] and 396 nM in test [3] (setting [4]).

Turning to `Cc1ccc(Oc2ccc(N(C[C@H](O)C(=O)NO)S(=O)(=O)N(C)C)cc2)cc1` [Example 19, N-Hydroxy (2S)-2-hydroxy-3-{N-[4-(4-methylphenoxy)phenyl],N-(dimethylamino)sulfonylamino}propionamide], the results for the IC50 in test [1] and in test [2] were more than 10000 nM and 243 nM, respectively.

For the origin of these results see US20080085893A1, “MATRIX METALLOPROTEASE INHIBITORS” (priority 2006, published 2008).
